Source: US10420815B2, “Combinational therapy for synergistic inhibition of gram-positive and gram-negative bacteria” (priority 2015, dated 2019)
“Also recorded” adds a separate entry of the source. Like-named read-outs stand apart in the source and are kept apart here.

Key:
MRSA USA300 (BAA-1680) [1] = assay: microbe, parasite or virus in culture; assay type: cell-based, Staphylococcus aureus
From the text: (§1) MRSA (ATCC 33593), MSSA (ATCC 29213), and MRSA USA300 (BAA-1680) strains were purchased from the American Type Culture Collection (ATCC; Manassas, Va.). Eight clinical isolates of MRSA were obtained from the Culture Collection of Antimicrobial Resistant Microbes, Korea National Research Resource Center (KNRRC). Salmonella enterica Typhimurium LT2 was purchased from ATCC, and Escherichia coli O157:H7 is a kind gift from Dr. Sangryeol Ryu (Seoul National University, South Korea). All S. aureus strains were maintained in Trypticase Soy (TS) medium, and E. coli O157:H7 and Salmonella were routinely grown aerobically on Luria-Bertani (LB) media at 37° C. For measuring growth kinetics, an overnight culture of MRSA in Mueller-Hinton (MH) broth was diluted 100-fold in fresh MH broth and cultured until early exponential phase. The culture (200 μl) was transferred to each well of a sterile 96-well plate and incubated at 37° C. with bacitracin alone, alkyl gallate alone, and combination of bacitracin/alkyl gallates at various concentrations. The optical density at 600 nm (OD600) was measured every hour with FLUOstar® Omega (BMG Labtech, Germany).
(§2) Broth micro dilution assays were performed to determine the minimum inhibitory concentrations (MIC) accordance to the M7-A7 protocol of the Clinical and Laboratory Standards Institute (CLSI) guidelines^28. The susceptibility test was carried out with an initial bacterial inoculum of 1.5×10^5 CFU ml^−1. Alkyl gallates and bacitracin were serially diluted in a polystyrene 96 well plate and the plate was incubated at 37° C. for 24 h. Minimum bactericidal concentration (MBC) was determined by spotting 10 μl of cultures from MIC tests onto MH agar and incubated aerobically at 37° C.

MRSA USA300 (BAA-1680) [2] = assay: Growth kinetics (OD600) with bacitracin, alkyl gallates and combinations; assay type: cell-based, Staphylococcus aureus; details: bacitracin 0.001 U to 100 U
From the text: as §1

MRSA USA300 = assay: Biofilm assay (crystal violet); assay type: cell-based, Staphylococcus aureus; details: LG at different concentrations plus 10^−4 U bacitracin; 18 h; listed as LG
Method: Biofilm assays were performed as described previously^30. Briefly, overnight culture of MRSA was diluted 1:100 in TS broth and was grown in a 96-well microtiter plate in the presence or absence (a negative control) of combinations of bacitracin and lauryl gallate at different concentrations. After aerobic incubation at 37° C. for 18 h, biofilms were washed and stained with crystal violet. After washing unbound crystal violet, the absorbance at 630 nm was measured with FLUOstar Omega® (BMG Labtech).

MRSA 3095 = assay: microbe, parasite or virus in culture; assay type: cell-based, Staphylococcus aureus; details: Staphylococcus aureus; MRSA 3095 (human/skin); read-out: MIC
In short: (§3)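 MIC was determined by CLSI M7-A7 broth microdilution with an inoculum of 1.5×10^5 CFU ml^−1 and 24 h at 37° C, testing alkyl gallates and bacitracin. MBC was read by spotting MIC cultures onto MH agar. Growth kinetics used OD600 hourly on early exponential MRSA in MH broth.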

MRSA 3795 = assay: microbe, parasite or virus in culture; assay type: cell-based, Staphylococcus aureus; details: Staphylococcus aureus; MRSA 3795 (human/nose); read-out: MIC
In short: as §3

MRSA 3799 = assay: microbe, parasite or virus in culture; assay type: cell-based, Staphylococcus aureus; details: Staphylococcus aureus; MRSA 3799 (human/nose); read-out: MIC
In short: as §3

MRSA 3823 = assay: microbe, parasite or virus in culture; assay type: cell-based, Staphylococcus aureus; details: Staphylococcus aureus; MRSA 3823 (human/nose); read-out: MIC
In short: as §3

MRSA 3865 = assay: microbe, parasite or virus in culture; assay type: cell-based, Staphylococcus aureus; details: Staphylococcus aureus; MRSA 3865 (human/skin); read-out: MIC
In short: as §3

MRSA 3876 = assay: microbe, parasite or virus in culture; assay type: cell-based, Staphylococcus aureus; details: Staphylococcus aureus; MRSA 3876 (human/skin); read-out: MIC
In short: as §3

MRSA 3903 = assay: microbe, parasite or virus in culture; assay type: cell-based, Staphylococcus aureus; details: Staphylococcus aureus; MRSA 3903 (human/skin); read-out: MIC
In short: as §3

MRSA 3A585 = assay: microbe, parasite or virus in culture; assay type: cell-based, Staphylococcus aureus; details: Staphylococcus aureus; MRSA 3A585 (human/blood); read-out: MIC
In short: as §3

MRSA (ATCC 33593) = assay: microbe, parasite or virus in culture; assay type: cell-based, Staphylococcus aureus; details: MRSA; for MIC: antioxidant alone
In short: (§4)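 CLSI M7-A7 broth microdilution in MH broth, 1.5×10^5 CFU ml^−1 inoculum, serial dilutions, 37° C for 24 h gave MICs. MBC: overnight cultures with antioxidants at 0.5 μg/ml plus bacitracin at various concentrations were spotted onto MH agar and incubated aerobically at 37° C to check viability.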

MSSA (ATCC 29213) = assay: MIC (broth dilution) and MBC (spotting) of phenolic antioxidants and bacitracin; assay type: cell-based, Staphylococcus aureus; details: for MIC: antioxidant alone
In short: as §4

[3] = test system: MRSA (normal MRSA strain, not USA300); assay: MRSA growth (optical density) with bacitracin and phenolic antioxidants; assay type: cell-based, Staphylococcus aureus
Escherichia coli O157:H7 = assay: microbe, parasite or virus in culture; assay type: cell-based
From the text: as §1, §2
(§5) MIC and MBC were measured as described above. MIC and MBC data are shown in Table 5 for both the Salmonella and the E. coli strain tested. The tested strains were highly resistant to bacitracin.

[4] = test system: Salmonella enterica Typhimurium LT2; assay: MIC and MBC, alone and bacitracin/alkyl gallate combinations; assay type: cell-based
From the text: as §1, §2, §5

[5] = antioxidant 0.5 μg/ml, compared to bacitracin alone
[6] = Staphylococcus aureus, read-out: MIC
[7] = Salmonella enterica, S. Typhimurium, agent alone

In the case of `CCCCCCCCCCCCOC(=O)c1cc(O)c(O)c(O)c1` [Lauryl gallate, lauryl gallate], the “MBC of bacitracin in combination with alkyl gallate” value (MRSA USA300 (BAA-1680) [1]; 5 μg ml^−1 alkyl gallate) is reported as 10^−1 U, the “fold decrease in bacitracin MBC” value (MRSA USA300 (BAA-1680) [1]; 5 μg ml^−1 alkyl gallate, versus bacitracin MBC 200 U) is reported as 2,000 fold and the “bactericidal activity in combination with bacitracin” value (MRSA USA300 (BAA-1680) [1]; FIG. 2) is reported as “synergistic antimicrobial activity”. The MBC (MRSA USA300 (BAA-1680) [1]; agent alone) was 64 µg/mL, the MIC (MRSA USA300 (BAA-1680) [1]; agent alone) was 32 µg/mL and the “growth inhibition by bacitracin in combination with alkyl gallate” value (MRSA USA300 (BAA-1680) [2]) was “significant growth inhibition”. The biofilm formation (MRSA USA300) was “substantial reduction in the level of biofilm formation; also recorded: significant anti-biofilm effects”, the MIC (MRSA 3095) was 64 µg/mL and the MIC (MRSA 3795) was 64 µg/mL. For the same compound, the MIC (MRSA 3799) was 32 µg/mL, the MIC (MRSA 3823) was 64 µg/mL and the MIC (MRSA 3865) was 64 µg/mL. For the same compound, the MIC (MRSA 3876) was 64 µg/mL, the MIC (MRSA 3903) was 64 µg/mL and the MIC (MRSA 3A585) was 64 µg/mL. For the same compound, the “fold decrease of bacitracin MBC by antioxidant” value (MRSA (ATCC 33593); [5]) was 512 fold, the MIC (MRSA (ATCC 33593)) was 128 µg/mL and the MIC (MRSA (ATCC 33593); [6]) was 64 µg/mL. The MIC (MSSA (ATCC 29213); [6]) was 64 µg/mL, the “fold decrease of bacitracin MBC by antioxidant” value (MSSA (ATCC 29213); [5]) was > 1,000 fold and the MIC (MSSA (ATCC 29213)) was 128 µg/mL. For the same compound, the “growth of MRSA with bacitracin plus antioxidant” value ([3]; bacitracin 0.002 μg/mL, antioxidant 0.5 μg/mL, FIG. 6) was “significantly inhibited the growth of MRSA”, the “optical density of MRSA after 18 h culture: inhibition of growth in combination with bacitracin” value ([3]; bacitracin 0.002 μg/ml (ca. 0.0002 U), antioxidant 0.5 μg/ml, 18 h, FIG. 8) was “significantly inhibited MRSA” and the “concentration of lauryl gallate alone that inhibited MRSA growth” value ([3]; lauryl gallate 0.5 μg/mL to 256 μg/mL, FIG. 7C) was 256 µg/mL. For the same compound, the “MRSA growth inhibition by lauryl gallate in combination with bacitracin” value ([3]; lauryl gallate 0.5 μg/ml, bacitracin 0.0019 μg/mL to 1 μg/mL, FIG. 7D) was “synergistically inhibited MRSA growth”, the “synergistic effect with bacitracin” value (Escherichia coli O157:H7; E. coli O157:H7, FIG. 10) was “more moderate synergistic effects” and the MBC (Escherichia coli O157:H7; Escherichia coli) was 1020 µg/mL. It also gave an MIC (Escherichia coli O157:H7; Escherichia coli) of 512 µg/mL, an MBC [4, 7] of over 1020 µg/mL and an MIC [4, 7] of over 1020 µg/mL. The “synergistic effect with bacitracin” value ([4]; Salmonella, FIG. 10) was “more moderate synergistic effects”.
